Values joined by “and” are separate entries in the source; they are usually repeats but may differ in a detail not shown here. Equal entries are not always repeated. Where two headings read alike, the source gives them in different places.

We go through eight compounds from patent US20050192299A1, “Method of treating or preventing hepatitis B virus” (priority 1992, published 2005).

One data set deals with mitochondria DNA. The experiment in a line: cells. Type of data set: cell-based. Conditions: for IC50: Homo sapiens, CCRF-CEM, CEM cells. The procedure:
The CEM cells (5×10^4) cells were collected and freeze-thawed three times. The cell lysate was incubated with RNase (10 μg/ml) at 37° C. for 30 minutes. The sample was treated with proteinase K (100 μg/ml) at 55° C. for 1 hour. A 0.8 volume of supersaturated Nal (2.5 gNaI in 1 ml hot water) was added to the sample and heated at 90° C. for 10 minutes. The DNA was immobilized on nitrocellulose paper by using a slot blot apparatus (Schleicher & Schuell, Keene, NH). The mtDNA on the nitrocellulose paper was detected with a mtDNA specific probe as described previously (Chen, C. H., Cheng, Y. C., “relayed Cytotoxicity and Selective Loss of Mitochondria DNA in Cells Treated with the Anti-Human Immunodeficiency Virus Compound 2′,3′-Dideoxycytidine,” J. Biol. Chem. 264: 11934-11937, 1989).
(§1) Mitochondria DNA content was measured by slot blot hybridization analysis. […] Thus, D4C would be expected to have a mitochondria effect before the anti-HBV effect was achieved as the same phenomenon observed in treatment with ddC.

Data set [1] has as its system HBV.
Data set [2] relates to HBV. Conditions: 12 days; for chromosomally integrated HBV DNA (amount and restriction enzyme pattern): 2.2.15 cells.
Protocol: Drug-treated cells were lysed with a buffer containing 10 mM Tris pH 7.5, 5 mM EDTA, 150 mM NaCl and 1% SDS. The cell lysate was digested with 100 μg/ml proteinase K at 55° C. for at least 2 hours and deproteinized by extraction with phenol. Nucleic acids were precipitated with 2 volumes of ethanol. The pellet of nucleic acid was redissolved in 10 mM Tris pH 8.0, 1 mM EDTA followed by 100 μg per ml RNase treatment at 37° C. for 1 hour. Concentrated ammonium acetate was added to the aqueous phase to yield a final 0.4 M ammonium acetate solution. The nucleic acids were precipitated with ethanol.
The chromosomally integrated HBV DNA genome and the episomal DNA can be separated in the gel and can be differentially quantified.
The subject of data set [3] is HBV. The experiment in a line: Northern blot analysis of HBV-specific RNA transcripts in 2.2.15 cells. Type of data set: cell-based, hepatitis B virus. As to conditions: 2.0 μM, 12 days. How it is done:
Total cellular RNA was isolated according to Chomczyndki et al. (Chomczynsk, P., and Sacchi, N., “Single Step Method for RNA Isolation by Acid Guanidinium Thiocyanate-Phenol-Chloroform Extraction,” Analytical Biochemistry, 162: 156-159, 1987). The RNA (20 μg per lane) was electrophoresed through 1% agarose gel containing 1.1×formaldehyde and transferred to Hybond-N membrane. The immobilized RNA was hybridized with ^32P-labeled HBV DNA probe and the membrane was autoradiographed as described above.
Northern blot analysis was performed to analyze HBV RNA transcripts. Three major transcripts of approximately 3.5, 2.5, and 2.1 Kb were detected in the total cellular RNA extract.

Data set [4] relates to CEM (T lymphoblastoid cells) cells. The experiment in a line: Cytotoxicity in CEM cells (cell number at day 4). Type of data set: cell-based. As to conditions: 4 days. How it is done: CEM (T lymphoblastoid cells) cells were inoculated in 5 ml RPMI 1640 supplemented with 5% fetal bovine serum at a concentration of 2×10^3 cells per ml. The cells were incubated with different concentrations of compounds for 4 days. At day 4, the cell number was determined by a coulter counter or a hemocytometer.
as §1

The target in the next data set is human cytidine deaminase (Homo sapiens, UniProt P32320). The experiment in a line: Deamination by deoxycytidine deaminase (HPLC analysis). As to conditions: 37° C., 16 hours. Type of data set: biochemical. The procedure:
After each time point, 100 μl of acetonitrile were added to the reaction mixture and agitated. The precipitated proteins were removed by centrifugation, and the supernatent was lyophilized to dryness. The samples were reconstituted with 200 μl of HPLC mobile phase buffer and analyzed on an Alltech RP-18 column. […] The mobile phase was 10% acetonitrile/water unless specified otherwise, and the flow rate was 0.8 ml/minutes.

The next data set relates to CEM cells. The experiment in a line: CEM growth with dialyzed FBS (cell number on days 2, 4 and 6). The class given is cell-based. As to conditions: Homo sapiens, CCRF-CEM, RPMI 1640 + 5% dialyzed FBS, cell number versus days in culture, read-out: ID50 (CEM cell growth, toxicity). The procedure: Six wells were seeded as controls. These wells were untreated. […] The cells were pipetted to break clumps, and then 1 ml was removed from each well and diluted into 9 ml saline. The saline+cells were pipetted well to break clumps and counted via a coutler counter. To determine ID50, cell number was plotted versus days in culture.

Where [5] appears, read: read-out: MTID30 (concentration which caused a 50% reduction in mitochondria DNA content).

Sequence of human cytidine deaminase (P32320 whole entry): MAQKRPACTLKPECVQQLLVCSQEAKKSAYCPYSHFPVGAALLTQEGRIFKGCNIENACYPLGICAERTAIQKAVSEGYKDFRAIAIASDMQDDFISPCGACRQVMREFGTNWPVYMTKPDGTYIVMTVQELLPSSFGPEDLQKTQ

As for `Nc1nc(=O)n([C@H]2CS[C@@H](CO)O2)cc1F` (racemic) [5-fluoro-3′-thia-2′,3′-dideoxycytidine, (±)5-fluoro-3′-thia-2′,3′-dideoxycytidine], the “effect on mitochondria DNA synthesis” value in the data set with mitochondria DNA is recorded as “no effect on mitochondria DNA synthesis was observed”. Besides, the IC50 with mitochondria DNA (setting [5]) is over 200000 nM; in the data set on HBV [1] it was 100 nM. The selectivity ratio in the data set on HBV [1] was over 2000. Also, the figures for the “chromosomally integrated HBV DNA (amount and restriction enzyme pattern)” value with HBV [2] and with HBV [2] (listed as 5-fluoro-3′-thia-2′,3-dideoxycytidine) were “unaltered” and “not found to affect the integrated HBV DNAs”, respectively. For the same compound, in the data set on HBV [2] (different concentrations), the “episomal HBV DNA in 2.2.15 cells” value was “decreased in a dose dependent manner”. In addition, in the data set on HBV [3], the “HBV specific RNA transcripts (3.5, 2.5, 2.1 Kb)” value is listed as “not affected at all”.

In turn, `Nc1ccn(C2COC(CO)O2)c(=O)n1` (single isomer, unassigned; (-)) [(−) OddC, (−)-L-B-dioxolane-cytosine] registered an IC50 in the data set on HBV [1] of under 1 nM.

With `Nc1ccn([C@H]2C[C@H](F)[C@@H](CO)O2)c(=O)n1` [3′-FddC, 3′-fluoro-2′,3′-dideoxycytidine], the “ED50 (concentration causing 50% reduction in cell number)” value in data set [4] amounted to 45000 nM. Moreover, the IC50 in the data set with mitochondria DNA (setting [5]) came to 110 nM. Also, in the data set on HBV [1], the IC50 was determined as 1600 nM and the selectivity ratio is 28.1. Further, the inhibition (usually the drop in the measured response relative to a control, in per cent) in the data set on HBV [1] (2 µM) was about 50%.

Consider `Nc1ccn([C@H]2CS[C@@H](CO)O2)c(=O)n1` [(+)3′-thia-2′,3′-dideoxycytidine], for which the “deamination by deoxycytidine deaminase” value on human cytidine deaminase is about 100%. The IC50 with CEM cells is 1260 nM. Besides, in the data set with HBV [1], the inhibition is about 50%.

With `Nc1ccn([C@@H]2CS[C@H](CO)O2)c(=O)n1` [(−)3′-thia-2′,3′-dideoxycytidine], the “deamination by deoxycytidine deaminase” value at human cytidine deaminase was “no sign of deamination at all”.

`Nc1ccn([C@H]2C=C[C@@H](CO)O2)c(=O)n1` [D4C, 2′,3′-didehydro-2′,3′-dideoxycytidine]: the “ED50 (concentration causing 50% reduction in cell number)” value in data set [4] came out at 22000 nM. For the same compound, the IC50 with mitochondria DNA (setting [5]) was 2000 nM; with mitochondria DNA (read-out: MtID50), 2000 nM; in the data set with HBV [1], 2400 nM. Moreover, the selectivity ratio in the data set on HBV [1] worked out at 9.2.

In the case of `Nc1ccn([C@H]2CC[C@@H](CO)O2)c(=O)n1` [ddC, 2′,3′ dideoxycytidine], the IC50 in the data set with mitochondria DNA (setting [5]) is 22 nM; in the data set with mitochondria DNA (read-out: MtID50), 22 nM; with HBV [1] it was 3800 nM and 3600 nM. Also, the selectivity ratio in the data set on HBV [1] came to 2.6.

For the compound `Nc1ccn([C@@H]2CS[C@@H](CO)O2)c(=O)n1` [α-3′-Thia-2′,3′-dideoxycytidine], the “deamination by deoxycytidine deaminase” value at human cytidine deaminase is recorded as “no deamination occurred”.
